Measurements: ChEMBL document CHEMBL3044870, “Effect of clomazone on various market classes of dry beans” (Crop Prot, 2007)

Tests used:
Format in all cases: organism-based
Details in all cases: in vivo, other
Phaseolus vulgaris [1] = assay: Phytotoxicity against Phaseolus vulgaris (pinto beans) assessed as visual crop injury at 1116 g a.i./ha applied pre-emergence 1 to 2 days post-planting measured on day 14 post-emergence relative to control
Phaseolus vulgaris [2] = assay: Phytotoxicity against Phaseolus vulgaris (yellow eye beans) assessed as visual crop injury at 1116 g a.i./ha applied pre-emergence 1 to 2 days post-planting measured on day 14 post-emergence relative to control
Phaseolus vulgaris [3] = assay: Phytotoxicity against Phaseolus vulgaris (brown beans) assessed as shoot dry weight at 2232 g a.i./ha applied pre-emergence 1 to 2 days post-planting measured on day 42 post-emergence (reference value: 149 g/m)
Phaseolus vulgaris [4] = assay: Phytotoxicity against Phaseolus vulgaris (brown beans) assessed as shoot dry weight at 1116 g a.i./ha applied pre-emergence 1 to 2 days post-planting measured on day 42 post-emergence (reference value: 149 g/m)
Phaseolus vulgaris [5] = assay: Phytotoxicity against Phaseolus vulgaris (black beans) assessed as shoot dry weight at 2232 g a.i./ha applied pre-emergence 1 to 2 days post-planting measured on day 42 post-emergence (reference value: 165 g/m)
Phaseolus vulgaris [6] = assay: Phytotoxicity against Phaseolus vulgaris (brown beans) assessed as plant height at 2232 g a.i./ha applied pre-emergence 1 to 2 days post-planting measured on day 28 post-emergence (reference value: 37 cm)
Phaseolus vulgaris [7] = assay: Phytotoxicity against Phaseolus vulgaris (black beans) assessed as plant height at 1116 g a.i./ha applied pre-emergence 1 to 2 days post-planting measured on day 28 post-emergence (reference value: 34 cm)

CC1(C)CON(Cc2ccccc2Cl)C1=O [CLOMAZONE]
Activity (Phaseolus vulgaris [1]): 4%
Activity (Phaseolus vulgaris [2]): 6%
Activity (Phaseolus vulgaris [3]): 143 g/m
Activity (Phaseolus vulgaris [4]): 139 g/m
Activity (Phaseolus vulgaris [5]): 150 g/m
Activity (Phaseolus vulgaris [6]): 35 cm
Activity (Phaseolus vulgaris [7]): 34 cm
